Assay results taken from US20250129095A1, “ANNULATED 2-AMINO-3-CYANO THIOPHENES AND DERIVATIVES FOR THE TREATMENT OF CANCER” (Boehringer Ingelheim Int'l GmbH Corp., priority 2021, published 2025).
pIC50: −log10 of the molar value.

Tests used:
LOVO cells = assay: LOVO CTG proliferation assay (120 h) (CRC, G13D); type: cell-based; details: Homo sapiens
Experimental: LOVO cells (ATCC CCL-229) are dispensed into 384-well plates, flat and clear bottom (Greiner, PNr. 781091) at a density of 1000 cells per well in 60 μL DMEM (Sigma D6429)+10% Fetal Calf Serum (HyClone, PNr.: SH30084.03) and incubated at 37° C. in a CO2 incubator overnight. The next day, compounds (10 mM stock in DMSO) are added with the ECHO acoustic liquid handler system (Beckman Coulter), including DMSO controls. Plates are incubated for 120 h, and cell viability is measured using CellTiter-Glo luminescent cell viability reagent (Promega product code G7570). Viability (stated as percent of control) is defined as relative luminescence units RLU of each well divided by the RLU of cells in DMS0 controls. IC50 values are determined from viability measurements by non-linear regression using a four-parameter model.

KRAS (G12D)::SOS1 = target: T1, KRAS (G12D)::SOS1 (Homo sapiens, UniProt P01116, G12D); assay: KRAS::SOS1 AlphaScreen binding assay, KRAS G12D; details: read-out: KRASG12D IC50
T1 construct: KRAS (G12D) 1-169, N-terminal 6His-tag, C-terminal avi-tag; 6His-tag (N); purchased Xtal BioStructures, Inc. (KRAS); Viva Biotech Ltd (SOS1)
T1 sequence (P01116 1-169 isoform P01116-2 G12D): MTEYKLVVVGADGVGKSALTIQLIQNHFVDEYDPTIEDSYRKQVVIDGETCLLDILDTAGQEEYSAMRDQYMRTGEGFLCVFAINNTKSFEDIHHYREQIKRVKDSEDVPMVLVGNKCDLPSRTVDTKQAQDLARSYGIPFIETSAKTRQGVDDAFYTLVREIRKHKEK
Description: This assay can be used to examine the potency with which compounds according to the invention binding to (mutated) KRAS inhibit the protein-protein interaction between SOS1 and (mutated) KRAS e.g., KRAS WT, KRAS G12C, KRAS G12D, KRAS G12V, KRAS G13D. […] Low IC50 values in this assay setting are indicative of strong inhibition of protein-protein interaction between SOS1 and KRAS:
These assays measure the inhibitory effect of compounds on KRAS mutant protein-protein interactions using the Alpha Screen technology by Perkin Elmer
The following (mutant) enzyme forms of KRAS and interacting proteins are used in these assays at the given concentrations: • KRAS (G12D) 1-169, N-terminal 6His-tag, C-terminal avi-tag (Xtal BioStructures, Inc.); final assay concentration 10 nM and SOS1 564-1049, N-terminal 229 GST-tag, TEV cleavage site (Viva Biotech Ltd); final assay concentration 5 nM; • KRAS (G12C) 1-169, N-terminal 6His-tag for purification, cleaved off, C-terminal avi-tag, biotinylated, mutations: C51S, C80L, C118S (in house); final assay concentration 7.5 nM and SOS1 564-1049, N-terminal 229 GST-tag, TEV cleavage site (Viva Biotech Ltd); final assay concentration 5 nM; • KRAS (G12V) 1-169, N-terminal 6His-tag for purification, cleaved off, C-terminal avi-tag, biotinylated, TEV cleavage site, mutation: C118S, GDP loaded (in house); final assay concentration 10 nM and SOS1 564-1049, N-terminal 229 GST-tag, TEV cleavage site (Viva Biotech Ltd); final assay concentration 10 nM; • KRAS (G13D) 1-169, N-terminal 6His-tag for purification, cleaved off, C-terminal avi-tag, biotinylated, TEV cleavage site, mutation: C118S, GDP loaded (in house); final assay concentration 10 nM and SOS1 564-1049, N-terminal 229 GST-tag, TEV cleavage site (Viva Biotech Ltd); final assay concentration 10 nM; • KRAS (WT) 1-169, N-terminal 6His-tag for purification, cleaved off, C-terminal avi-tag, biotinylated, TEV cleavage site, mutation: C118S, GDP loaded (in house); final assay concentration 10 nM and SOS1 564-1049, N-terminal 229 GST-tag, TEV cleavage site (Viva Biotech Ltd); final assay concentration 10 nM.
Test compounds dissolved in DMSO are dispensed onto assay plates (Proxiplate 384 PLUS, white, PerkinElmer; 6008289) using an Access Labcyte Workstation with the Labcyte Echo 55×. For the chosen highest assay concentration of 100 μM, 150 nL of compound solution are transferred from a 10 mM DMSO compound stock solution. A series of eleven fivefold dilutions per compound are transferred to the assay plate, compound dilutions are tested in duplicates. DMSO are added as backfill to a total volume of 150 nL.
The assays run on a fully automated robotic system in a darkened room below 100 Lux. To 150 nl of compound dilution 10 μl of a mix including KRAS mutant protein, SOS1 (final assay concentrations see above) and GDP nucleotide (Sigma G7127; final assay concentration 10 μM) in assay buffer (1×PBS, 0.1% BSA, 0.05% Tween 20) are added into columns 1-24.
After 30 minutes incubation time 5 μl of Alpha Screen bead mix in assay buffer are added into columns 1-23. Bead mix consists of AlphaLISA Glutathione Acceptor Beads (PerkinElmer, Cat No AL109) and AlphaScreen Streptavidin Donor Beads (PerkinElmer Cat No 6760002) in assay buffer at a final assay concentration of 10 μg/ml each.
Plates are kept at room temperature in a darkened incubator. After an additional 60 minutes incubation time the signal is measured in a PerkinElmer Envision HTS Multilabel Reader using the AlphaScreen specs from PerkinElmer.
Each plate contains up to 16 wells of a negative control depending on the dilution procedure (platewise or serial) (DMSO instead of test compound; with KRAS mutant::SOS1 GDP mix and bead mix; column 23) and 16wells of a positive control (DMSO instead of test compound; with KRAS mutant::SOS1 GDP mix w/o bead mix; column 24).
As internal control known inhibitors of KRAS mutant::SOS1 interaction can be measured on each compound plate. […]

[1] = Plasma protein binding assay (PPB), equilibrium dialysis; type: in vitro ADME; details: bovine, 10% FCS in PBS, read-out: PPB 10% FCS (% fu)
Experimental: Binding of test compounds to plasma was determined using equilibrium dialysis (ED) and quantitative mass spectrometry interfaced with liquid chromatography (LC-MS). In brief, ED was performed with dialysis devices consisting of two chambers separated by a semipermeable membrane with a molecular weight cut-off of 5-10 kg/mol. One chamber was filled with 10% FCS in PBS containing 1-10 μmol/L test compound and the other chamber was filled with phosphate-buffer saline (PBS) with or without dextran. The dialysis chamber was incubated for 3-5 hours at 37° C. After incubation, protein was precipitated from aliquots of each chamber and the concentration of test compound in the supernatant of the plasma-containing compartment (cserum) and of the buffer-containing compartment (cbuffer) was determined by LC-MS. The fraction of unbound test compound (not bound to plasma) (fu) was calculated according to the following equation: […]

Row | Structure (SMILES) | pIC50 (LOVO cells) | pIC50 (KRAS (G12D)::SOS1) | fraction unbound [1]
1 | C[C@H](Oc1cc(O[C@H]2CNC(C)(C)C2)nc(-c2noc3c2CCC[C@@]32CCCc3sc(N)c(C#N)c32)n1)[C@@H]1CCCN1C (single isomer, unassigned) [II-8] | 6.30 | 9.00 | 0.59
2 | C[C@H](Oc1cc(Oc2nccs2)nc(-c2onc3c2CCC[C@@]32CCCc3sc(N)c(C#N)c32)n1)[C@@H]1CCCN1C [Example I-1] | 7.27 | 8.70 | 0.25
3 | C[C@H](Oc1cc(Oc2cccnc2)nc(-c2onc3c2CCC[C@@]32CCCc3sc(N)c(C#N)c32)n1)[C@@H]1CCCN1C [Example I-2] | 7.49 | 9.00 | 0.31
4 | C[C@H](Oc1cc(Oc2cncnc2)nc(-c2onc3c2CCC[C@@]32CCCc3sc(N)c(C#N)c32)n1)[C@@H]1CCCN1C [Example I-3] | 7.46 | 9.00 | 0.57
5 | C[C@H](Oc1cc(N[C@H]2CCOC2)nc(-c2onc3c2CCC[C@@]32CCCc3sc(N)c(C#N)c32)n1)[C@@H]1CCCN1C [Example I-4] | 6.24 | 8.40 | 0.6
6 | COC[C@H](C)Nc1cc(O[C@@H](C)[C@@H]2CCCN2C)nc(-c2onc3c2CCC[C@@]32CCCc3sc(N)c(C#N)c32)n1 [Example I-5] | – | 7.92 | 0.45
7 | C[C@H](Oc1cc(Nc2ccccn2)nc(-c2onc3c2CCC[C@@]32CCCc3sc(N)c(C#N)c32)n1)[C@@H]1CCCN1C [Example I-6] | 6.23 | 8.40 | 0.31
8 | C[C@H](Oc1cc(Sc2ncccn2)nc(-c2onc3c2CCC[C@@]32CCCc3sc(N)c(C#N)c32)n1)[C@@H]1CCCN1C [Example I-7] | 5.49 | 8.22 | 0.61
9 | C[C@H](Oc1cc(OCC2(N(C)C)COC2)nc(-c2onc3c2CCC[C@@]32CCCc3sc(N)c(C#N)c32)n1)[C@@H]1CCCN1C [Example I-8] | 7.57 | 8.70 | 0.45
10 | C[C@H](Oc1cc(Oc2cncnc2)nc(-c2noc3c2CCC[C@@]32CCCc3sc(N)c(C#N)c32)n1)[C@@H]1CCCN1C [II-1] | 6.36 | 9.00 | 0.19
11 | C[C@H](Oc1cc(Oc2nccs2)nc(-c2noc3c2CCC[C@@]32CCCc3sc(N)c(C#N)c32)n1)[C@@H]1CCCN1C [II-2] | 7.28 | 8.70 | 0.07
12 | C[C@H](Oc1cc(Oc2ccon2)nc(-c2noc3c2CCC[C@@]32CCCc3sc(N)c(C#N)c32)n1)[C@@H]1CCCN1C [II-3] | 6.99 | 8.70 | 0.12
13 | C[C@H](Oc1cc(O[C@H]2CCOC2)nc(-c2noc3c2CCC[C@@]32CCCc3sc(N)c(C#N)c32)n1)[C@@H]1CCCN1C [II-4] | 7.03 | 8.70 | 0.54
14 | COCCOc1cc(O[C@@H](C)[C@@H]2CCCN2C)nc(-c2noc3c2CCC[C@@]32CCCc3sc(N)c(C#N)c32)n1 [II-5] | 6.93 | 9.00 | 0.5
15 | C[C@H](Oc1cc(OCCO)nc(-c2noc3c2CCC[C@@]32CCCc3sc(N)c(C#N)c32)n1)[C@@H]1CCCN1C [II-6] | 6.11 | 9.00 | 0.72
16 | C[C@H](Oc1cc(Oc2cnccn2)nc(-c2noc3c2CCC[C@@]32CCCc3sc(N)c(C#N)c32)n1)[C@@H]1CCCN1C [II-7] | 7.82 | 9.00 | 0.28
17 | C[C@H](Oc1cc(O[C@@H]2CNC2(C)C)nc(-c2noc3c2CCC[C@@]32CCCc3sc(N)c(C#N)c32)n1)[C@@H]1CCCN1C [II-9] | 7.00 | 9.00 | 0.52
18 | C[C@H](Oc1cc(N(C)C)nc(-c2noc3c2CCC[C@@]32CCCc3sc(N)c(C#N)c32)n1)[C@@H]1CCCN1C [II-10] | 5.39 | 8.70 | 0.08
19 | C[C@H](Oc1cc(NCC2COC2)nc(-c2noc3c2CCC[C@@]32CCCc3sc(N)c(C#N)c32)n1)[C@@H]1CCCN1C [II-11] | 6.25 | 9.00 | 0.62
20 | C[C@H](Oc1cc(Nc2nccs2)nc(-c2noc3c2CCC[C@@]32CCCc3sc(N)c(C#N)c32)n1)[C@@H]1CCCN1C [II-12] | 5.95 | 8.22 | 0.07
21 | C[C@H](Oc1cc(Nc2ncco2)nc(-c2noc3c2CCC[C@@]32CCCc3sc(N)c(C#N)c32)n1)[C@@H]1CCCN1C [II-13] | 6.30 | 8.70 | 0.2
22 | C[C@H](Oc1cc(Nc2cnccn2)nc(-c2noc3c2CCC[C@@]32CCCc3sc(N)c(C#N)c32)n1)[C@@H]1CCCN1C [II-14] | 6.02 | 8.52 | 0.1
23 | C[C@H](Oc1cc(Nc2ccccn2)nc(-c2noc3c2CCC[C@@]32CCCc3sc(N)c(C#N)c32)n1)[C@@H]1CCCN1C [II-16] | – | 8.52 | 0.37
